According to patent US8071325B2, “Flow cytometric method and kit for metal-induced sensitivity” (The Trustees of the University of Pennsylvania, priority 2004, dated 2011):
Marks after values point to notes of the source that are not given here.

Tests used:
[1] = test system: Peripheral blood lymphocytes (PBLs); experiment: Blood BeLPT (3H-thymidine incorporation assay); format: cell-based, human; conditions: for stimulation index (SI): mean ± SEM
Procedure: Beryllium workers (present and former), referred to the Hospital of the University of Pennsylvania (HUP) for possible CBD, were tested. […] CBD was diagnosed when there was evidence of BH with granulomas on biopsy and/or radiologic changes consistent with a granulomatous process. Normal unexposed volunteers were used as controls.
Peripheral blood lymphocytes (PBLs) were isolated from heparinized blood under sterile conditions using density centrifugation with lymphocyte separation medium (ICN Biomedicals Inc., Aurora, Ohio). Blood BeLPT was performed. The cells were cultured at a concentration of 2.5×10^5 cells/well. Stimulants included 500 μg/ml of phytohemagglutinin (PHA) (L-9132; Sigma Chemical Co., St Louis, Mo.), 20 μl/ml of Candida(M15; Greer Labs, Lenoir, N.C.) and 100 μM or 10 μM of beryllium sulfate (Blush Wellman, Cleveland, OH). After culturing the cells in an incubator (5% CO2 and 37° C.) for 3, 5 or 7 days, the cells were pulsed with ^3H thymidine (DuPont NEN, Boston, Mass.) overnight (ice. 16-24 hours) and then harvested on a filter fiber (Wallac, Turku, Finland). The uptake of ^3H thymidine was measured as counts per minute (CPM) using a Wallac 1205 beta plate liquid scintillation system (Wallac Inc., Gaithersburg, Md.). Results were expressed as a stimulation index (SI=mean CPM of test wells/mean CPM of control wells). A positive response was defined as a SI>3.0 for blood A positive test required that a positive response be recorded on two different days or at two different concentrations of beryllium.
All values are presented as ± SEM (standard error of the mean). Data are only presented if a minimum of 1,000 cells were detected within a population. For the tritiated thymidine test, the results were expressed as a stimulation index and group differences (between controls and beryllium-sensitive populations) were evaluated using the Student's T test. For the CFSE tests, since the results were expressed as PR, the Mann-Whitney version of the […] was used to determine if there was a difference between the normal donors and the beryllium exposed patients. Statistical significance was defined as p<0.05.

[2] = test system: CFSE-labeled peripheral blood lymphocytes (CD3+, CD3+/CD4+, CD3+/CD8+ T cells); experiment: CFSE dye dilution proliferation measured by flow cytometry; format: cell-based, human; conditions: for proliferative ratio (PR, %M2/%M1): mean +/- SEM
Procedure: Cell surface marker staining was performed. The following monoclonal antibodies were used: Phycoerythin (PE) conjugated anti-human CD4, Tricolor-conjugated anti-human CD3, Allophycocyanin (APC) conjugated anti-human CD8 (Caltag, Burlingame, Calif.). The vital dye TO-PRO®-3 (Molecular Probes Inc., Eugene, Oreg.) was used to discriminate live and dead cells.
The CFSE labeling method was adapted from a previously described protocol. Aliquots of the same PBL sample used in the BeLPT assay were split and washed three times in 10 ml of phosphate buffered saline (dPBS, Gibco BRL, Grand Island, N.Y.) at room temperature. The cells were adjusted to 10^6 cells per milliliter, and CFSE (Molecular Probes, Eugene, Oreg.) was added at a final concentration of 1 μM/ml. The cells were vortexed for ten seconds and then incubated for ten minutes in the dark at room temperature with gentle shaking. After incubation an equal volume of sterile, heat inactivated human serum (Gibco BRL, Grand Island, N.Y.) was added to the sample for one minute to quench the reaction. The cells were washed twice, adjusted to the concentration 2×10^6/ml in 10% human heat inactivated serum.
Following CFSE (carboxy fluorescein diacetate succinimide ester) labeling, the cells were cultured in 24-well plates at 2×10^6 per well in the presence of either media alone, PHA, Candida, or either 10 or 100 μM of beryllium sulfate. The cells were incubated for seven days at 37° C. and 5% CO2. Preliminary experiments titrated the optimal dose of CFSE and time of incubation. Surface labeling was performed at the time of harvest using CD3TC, CD4PE and CD8APC in some experiments. TO-PRO®-3 was added to define live cells in some experiments.
All data were acquired on a four-color, dual laser FACSCalibur (Becton Dickinson, San Jose, Calif.). CFSE was measured in Fl-1 channel (530/30-nm bandpass filter), CD4PE in the Fl-2 channel (585/42-nm bandpass filter), CD3TC in the Fl-3-channel (670-nm longpass filter) using excitation from the 488 nm blue laser and TO-PRO®-3 or CD8APC in Fl-4 channel (661/16 bandpass filter) by excitation using the 635 nm red diode laser. Compensation for CFSE in multiparameter flow cytometry is dose dependent and determined empirically.
The basic analysis gating strategy was as follows (FIG. 1): for analysis of CD3+ T cells alone, an initial region was defined as lymphocytes by light scatter and a broad region was set to include medium to high forward/low side scatter events after stimulation with PHA (FIG. 1A, R1) to include all proliferating lymphocytes. For CD3+ T cells, the R1 data were plotted in a contour plot of CD3TC versus TO-PRO®-3 to identify the live CD3+ T Cells (FIG. 1B, R2). The R2 population was expressed on a contour plot of CD3+CD4+ where a double positive region was defined as R3 (FIG. 1C). For final analyses, each population was then analyzed for CFSE (FL1) fluorescence, representing proliferation, on a single parameter histogram using a logical gate of either R1*R2 for CD3+ cells only and R1*R2*R3 for CD3+4+ cells. In experiments where only data from CD3+ or CD3+4+ cells were collected, a live gate on TO-PRO®-3 negative (“viable”) cells was also used in acquisition. When specific CD4+ and CD8+ T cell determination was performed, the viability dye was eliminated. The strategy was similar to that above with light scatter gating (R1) followed by identification of the CD3+ events using a SSC vs CD3+ plot (R2) and CD4+ (R3) and CD8+(R4) identification followed by single parameter histogram analysis of the CFSE fluorescence (for CD4+, R1*R2*R3; for CD8, R1*R2*R4*).
CFSE flow cytometric data files were analyzed using CellQuest™ acquisition/analysis software (Becton Dickinson, San Jose, Calif.). Fifty thousand (50,000) events were collected. The data are reported as the proliferative ratio (PR) defined as the ratio of the percentage of divided cells to undivided cells on day 7 (%M2/%M1). […]

Compound: O=S(=O)([O-])[O-].[Be+2] [Be, beryllium sulfate]
- stimulation index (SI) ([1]; Day 5, Be 10 μM, beryllium-exposed sensitized (n = 24)): 12.1 ± 3.96
- stimulation index (SI) ([1]; Day 5, Be 10 μM, normal controls (n = 9)): 0.72 ± 0.08
- stimulation index (SI) ([1]; Day 5, Be 100 μM, beryllium-exposed sensitized (n = 24)): 12.8 ± 4.93
- stimulation index (SI) ([1]; Day 5, Be 100 μM, normal controls (n = 9)): 0.74 ± 0.09
- stimulation index (SI) ([1]; Day 7, Be 10 μM, beryllium-exposed sensitized (n = 24)): 12.5 ± 4.43
- stimulation index (SI) ([1]; Day 7, Be 10 μM, normal controls (n = 9)): 0.44 ± 0.08
- stimulation index (SI) ([1]; Day 7, Be 100 μM, beryllium-exposed sensitized (n = 24)): 11.5 ± 4.86
- stimulation index (SI) ([1]; Day 7, Be 100 μM, normal controls (n = 9)): 0.52 ± 0.12
- proliferative response by thymidine incorporation (in words) ([1]; beryllium-sensitized population, p<0.05): positive responses were noted
- proliferative response by thymidine incorporation (in words) ([1]; control group): positive responses to beryllium were not noted
- CFSE-determined response, sensitized versus controls (in words) ([2]; CD3+ and CD3+/CD4+ T cells from beryllium-sensitized subjects, both doses): significant difference
- CFSE-determined response (in words) ([2]; CD3+ or CD3+/CD4+ high cells from controls, 10 or 100 μM): minimal response
- proliferative ratio (PR, %M2/%M1) ([2]; CD3+/CD4+, Be 10 μM, day 7, beryllium-exposed sensitized (n = 24)): 0.105 ± 0.038
- proliferative ratio (PR, %M2/%M1) ([2]; CD3+/CD4+, Be 10 μM, day 7, normal controls (n = 9)): 0.027 ± 0.005
- proliferative ratio (PR, %M2/%M1) ([2]; CD3+/CD4+, Be 100 μM, day 7, beryllium-exposed sensitized (n = 24)): 0.089 ± 0.027
- proliferative ratio (PR, %M2/%M1) ([2]; CD3+/CD4+, Be 100 μM, day 7, normal controls (n = 9)): 0.029 ± 0.010
- proliferative ratio (PR, %M2/%M1) ([2]; CD3+, Be 10 μM, day 7, beryllium-exposed sensitized (n = 24)): 0.115 ± 0.046
- proliferative ratio (PR, %M2/%M1) ([2]; CD3+, Be 10 μM, day 7, normal controls (n = 9)): 0.027 ± 0.005
- proliferative ratio (PR, %M2/%M1) ([2]; CD3+, Be 100 μM, day 7, beryllium-exposed sensitized (n = 24)): 0.099 ± 0.026
- proliferative ratio (PR, %M2/%M1) ([2]; CD3+, Be 100 μM, day 7, normal controls (n = 9)): 0.030 ± 0.008
- CFSE-determined response, sensitized versus normal donors (in words) ([2]; CD8+ T cells, normal donors or beryllium-sensitized individuals): no differences were noted
- proliferative ratio (PR, %M2/%M1) ([2]; Table 3 series (CD8 APC staining), CD3+, Be 10 μM, beryllium-exposed sensitized (n = 14)): 0.156 +/− 0.114‡
- proliferative ratio (PR, %M2/%M1) ([2]; Table 3 series (CD8 APC staining), CD3+, Be 10 μM, normal controls (n = 6)): 0.012 +/− 0.002^†
- proliferative ratio (PR, %M2/%M1) ([2]; Table 3 series (CD8 APC staining), CD3+, Be 100 μM, beryllium-exposed sensitized (n = 14)): 0.188 +/− 0.137‡
- proliferative ratio (PR, %M2/%M1) ([2]; Table 3 series (CD8 APC staining), CD3+, Be 100 μM, normal controls (n = 6)): 0.013 +/− 0.002
- proliferative ratio (PR, %M2/%M1) ([2]; Table 3 series, CD4+ (CD3+/CD4+), Be 10 μM, beryllium-exposed sensitized (n = 14)): 0.164 +/− 0.112‡
- proliferative ratio (PR, %M2/%M1) ([2]; Table 3 series, CD4+ (CD3+/CD4+), Be 10 μM, normal controls (n = 6)): 0.015 +/− 0.003
- proliferative ratio (PR, %M2/%M1) ([2]; Table 3 series, CD4+ (CD3+/CD4+), Be 100 μM, beryllium-exposed sensitized (n = 14)): 0.210 +/− 0.114‡
- proliferative ratio (PR, %M2/%M1) ([2]; Table 3 series, CD4+ (CD3+/CD4+), Be 100 μM, normal controls (n = 6)): 0.015 +/− 0.002
- proliferative ratio (PR, %M2/%M1) ([2]; Table 3 series, CD8+ (CD3+/CD8+), Be 10 μM, beryllium-exposed sensitized (n = 11)): 0.016 +/− 0.003
- proliferative ratio (PR, %M2/%M1) ([2]; Table 3 series, CD8+ (CD3+/CD8+), Be 10 μM, normal controls (n = 4)): 0.013 +/− 0.003
- proliferative ratio (PR, %M2/%M1) ([2]; Table 3 series, CD8+ (CD3+/CD8+), Be 100 μM, beryllium-exposed sensitized (n = 11)): 0.019 +/− 0.002
- proliferative ratio (PR, %M2/%M1) ([2]; Table 3 series, CD8+ (CD3+/CD8+), Be 100 μM, normal controls (n = 4)): 0.011 +/− 0.004
- CFSE-determined response (in words) ([2]; beryllium-sensitive population, CD3+ population, 10 μM, p<0.05): significant positive response
- CFSE-determined response (in words) ([2]; beryllium-sensitive population, CD3+/CD4+ population, 10 μM and 100 μM, p<0.05): significant positive response

Compound: phytohemagglutinin [PHA]
- stimulation index (SI) ([1]; Day 3, PHA 500 μg/ml, beryllium-exposed sensitized (n = 24)): 178 ± 23.2
- stimulation index (SI) ([1]; Day 3, PHA 500 μg/ml, normal controls (n = 9)): 137 ± 38.9
- proliferative response by thymidine incorporation (in words) ([1]; control and beryllium-sensitized populations, PHA on day 3, Candida on day 5 and on day 7): Positive responses
- CFSE-determined response (in words) ([2]; CD3+ and CD3+CD4+ cells from both the control and the beryllium-sensitive populations): positive responses
- CFSE-determined response (in words) ([2]; CD3+, CD3+/CD4+ and CD3+/CD8+ T cells from controls (n=6) and beryllium-sensitized (n=14) populations): responded
- proliferative ratio (PR, %M2/%M1) ([2]; CD3+/CD4+, PHA, day 7, beryllium-exposed sensitized (n = 24)): 15.756 ± 5.094
- proliferative ratio (PR, %M2/%M1) ([2]; CD3+/CD4+, PHA, day 7, normal controls (n = 9)): 10.064 ± 2.753
- proliferative ratio (PR, %M2/%M1) ([2]; CD3+, PHA, day 7, beryllium-exposed sensitized (n = 24)): 10.358 ± 4.730
- proliferative ratio (PR, %M2/%M1) ([2]; CD3+, PHA, day 7, normal controls (n = 9)): 9.853 ± 2.908
